Reference: patent US20200390755A1, “COMPOUND FOR TREATING NERVOUS SYSTEM DISEASES AND USE THEREOF” (SHAANXI MICOT TECHNOLOGY CO., LTD., priority 2018, published 2020)

Key:
[1] = system: rats with permanent cerebral ischemia; assay: Neurobehavioral scoring in rats with permanent cerebral ischemia (MCAO thread plug); assay type: in vivo, SD rats; settings: 20 mg/kg by gavage
Protocol: SD rats, male, about 220-250 g, were provided by the Experimental Animal Center of Medical College of Xi'an Jiaotong University. Rats were randomly divided into groups of 14 animals/group. The experiment included a sham group, a model group, a positive control Edaravone group and test compound groups 1-5.12 hours before the operation, the rats were fasted and were free to drink water, and then used for the modeling method of middle cerebral artery occlusion with thread plug. The rats were fixed on a wooden board after anesthesia, the common carotid artery was ligated proximally, the external carotid artery was ligated distally, and the main internal carotid artery into skull was retained. A ligature line was reserved at the bifurcation of the internal carotid artery for temporarily clamping the distal end of the internal carotid artery using an arterial clip. A 3-0 nylon thread with a length of 5 cm and a spherical shape with a diameter of 0.3 mm at the tip was inserted into the common carotid artery through a small incision at the bifurcation. The arterial clamp was loosened, and the thread plug was slowly advanced to 18˜20 mm. When there was resistance, the progress of the thread was stopped. At this time, the nylon thread plug entered the middle artery and blocked the blood flow, and then the ischemic phase began. The skin was sutured. In the sham operation group, the same procedure was executed, except that no thread plug was inserted.
Administering was performed at 0 h, 3 h, 6 h and 12 h after ischemia, and then administering was performed once a day for 7 consecutive days. The test compound was prepared into a 4 mg/mL solution with 1% CMC-Na solution and administered by gavage. The edaravone group received an intravenous dose of 0.078 mg/kg.
2) The rats were lifted at its tail about 1 foot off the ground to observe the condition of both forelimbs. The rats were placed on a level ground and pushed on both shoulders to observe the difference in resistance on both sides. The rats were placed on the ground to observe the walking. The assessment was conducted using a five-grade four-point scoring method (0 to 4 points). The higher the score, the more severe the neurobehavioral damage.
0 point: the behavior is completely normal;
1 point: when the rat is lifted at its tail off the ground, the forelimb on the opposite side of the operation rotates and folds inwardly.
2 points: when the rat is placed on a level ground and pushed on both shoulders to observe the difference in resistance on both sides, the resistance on the opposite side of the operation reduces;
3 points: when the rat is placed on the ground to the walking, it circles around the opposite side of the operation;
4 points: The injury is so severe that the rat is unable to move independently.
(2) Statistical analysis of data: SPSS18.0 statistical software was used for statistical analysis and the data of each group was expressed as the mean standard error (x±SEM). One-way ANOVA and multiple comparisons between groups were used to compare the averages of measurement data among multiple groups. Rank score test was used for behavioral grading data, and Kaplan-Meier method was used for mortality. P<0.05 was considered statistically significant.

[2] = system: AKT signaling pathway; assay: Western blotting of p-AKT and t-AKT in primary cortical neuron cells; assay type: cell-based, mouse; settings: 500 nM, 10 min at 37° C., Vehicle = 100, n = 3
Protocol: N171-82Q WT male mice were mated with female B6C3F1/J hybrid mice. B6C3F1/J mice 18 days after pregnancy were anesthetized with isoflurane and dissected to remove embryos, which were then placed in a 10 cm Petri dish containing Leibovitz's buffer. The head of the embryo was cut off, and the brain was peeled off to obtain the whole mouse brain, which was then placed in a new 10 cm Petri dish containing Leibovitz's buffer. The neurocortex of the brain was separated and placed in a 15 mL centrifuge tube containing 3 mL Leibovitz's buffer. The centrifuge tube was centrifuged at 1000 rpm for 1 minute, and the Leibovitz's buffer was gently removed from the centrifuge tube, and then 750 μL of 0.25% trypsin-EDTA and 75 μL of 0.1% DNase (2000 U/mL) were added to digest at 37° C. for 15 min. 750 μL of DMEM medium containing 5% FBS was added to stop the digestion. The cells were mixed well, and centrifuged at 1000 rpm for 5 minutes. Trypins/DNase mixture was removed, and 750 μL of Neurobasal medium (B-27, Glutamax, P/S) was added. The cells were mixed by gently pipetting with a pipette for 30 times. The cell suspension was filtered with a 40 µm filter and transferred to another new 50 mL centrifuge tube. 10 μL of the cell suspension was added to 90 μL of DMEM (diluted 10 times), and 10 μL of the liquid mixture was placed on a hemocytometer so that the suspension filled between the cover slip and the counting plate for counting. The cells in the four large grids of the plate were counted, wherein for the cells across the line, only the cells on the left and upper side lines were counted. The following formulas were used:
Number of cells/mL=total number of cells in the four large grids/4×10^4/mL
Total number of cells/mL=total number of cells in the four large grids/4×10^4/mL×dilution factor.
After counting, the cells were diluted with Neurobasal selection medium so that 1 mL of Neurobasal culture medium contained 0.5×10^6 cells.
200 μL of PDL solution previously heated in a 37° C. water bath was added to each well of a 6-well plate, and incubated at 37° C. overnight to allow PDL to evenly coat the well plate. The PDL solution was absorbed and the plate was washed twice with PBS. Before use, the PBS remaining on the plate was absorbed and the cover was opened to dry the plate in a super clean bench. 2 mL of cell suspension was added to each well (37° C., 5% CO2), and the cells were cultured until adherence. The culture medium was replaced and the culture continued for 3 days, and then the growth status of neurons was observed. Every other 3 days, half of the medium was removed and replaced with fresh complete medium. The culture continued until the primary cortical neuron cells mature (usually mature on the 14th day of culture).
After the primary cortical neuron cells have matured, appropriate amount of freshly prepared culture medium was added until final volume in each well was 2 mL. The experiment included a blank control group (Vehicle), a positive control group BDNF (10 ng/mL), a control compound group (500 nM), and 6 test compound groups (500 nM). Three repeats were set for each dose. After incubating at 37° C. for 10 min, the culture solution was discarded and the cells were washed with pre-chilled PBS, and then 40 μL of pre-chilled lysate (RIPA buffer 10 mL and protease and phosphatase inhibitor 100 μL) was added to each well for lysis on ice for 30 min. After lysis, the cell was crushed by ultrasonic cell crusher, centrifuged at 14000 rpm for 20 min at 4° C. The supernatant was transferred to a new 1.5 mL centrifuge tube to extract protein. Western blotting experiments were used to detect the protein levels of (A) p-TrkB and t-TrkB; (B) p-AKT and t-AKT.
The software Sigmaplot 13.0 was used for statistical analysis of the data, and the data of each group was expressed as mean±standard error (x±SEM). […]

Compound: CN(C)C1CCN(c2ccc(-c3cc(=O)c4ccc(O)c(O)c4o3)cc2)CC1 [Example 3, 2-(4-(4-(dimethylamino)piperidin-1-yl)phenyl)-7,8-dihydroxy-4H-chromen-4-one]
- Neurobehavioral score (0 to 4 points) ([1]; 6 h after ischemia): 1.98 ± 0.25
- Neurobehavioral score (0 to 4 points) ([1]; 1 d after ischemia): 2.23 ± 0.34
- Neurobehavioral score (0 to 4 points) ([1]; 2 d after ischemia): 1.91 ± 0.26
- Neurobehavioral score (0 to 4 points) ([1]; 3 d after ischemia): 1.87 ± 0.33
- Neurobehavioral score (0 to 4 points) ([1]; 4 d after ischemia): 1.74 ± 0.26
- Neurobehavioral score (0 to 4 points) ([1]; 5 d after ischemia): 1.63 ± 0.20
- Neurobehavioral score (0 to 4 points) ([1]; 6 d after ischemia): 1.78 ± 0.34
- Neurobehavioral score (0 to 4 points) ([1]; 7 d after ischemia): 1.01 ± 0.27
- Relative intensity of p-AKT/t-AKT protein [2]: 240.213 ± 8.376

Compound: O=c1cc(-c2ccc(N3CCCCC3)cc2)oc2c(O)c(O)ccc12 [Example 1, 7,8-dihydroxy-2-(4-(piperidin-1-yl)phenyl)-4H-chromen-4-one]
- Neurobehavioral score (0 to 4 points) ([1]; 6 h after ischemia): 2.07 ± 0.22
- Neurobehavioral score (0 to 4 points) ([1]; 1 d after ischemia): 2.11 ± 0.2
- Neurobehavioral score (0 to 4 points) ([1]; 2 d after ischemia): 1.88 ± 0.35
- Neurobehavioral score (0 to 4 points) ([1]; 3 d after ischemia): 2.13 ± 0.23
- Neurobehavioral score (0 to 4 points) ([1]; 4 d after ischemia): 1.88 ± 0.35
- Neurobehavioral score (0 to 4 points) ([1]; 5 d after ischemia): 2 ± 0.38
- Neurobehavioral score (0 to 4 points) ([1]; 6 d after ischemia): 1.86 ± 0.34
- Neurobehavioral score (0 to 4 points) ([1]; 7 d after ischemia): 1.17 ± 0.17
- Relative intensity of p-AKT/t-AKT protein [2]: 219.663 ± 8.085

Compound: COc1ccc2c(=O)cc(-c3ccc(N4CCCCC4)cc3)oc2c1OC [Example 2, 7,8-dimethoxy-2-(4-(piperidin-1-yl)phenyl)-4H-chromen-4-one]
- Neurobehavioral score (0 to 4 points) ([1]; 6 h after ischemia): 2.13 ± 0.17
- Neurobehavioral score (0 to 4 points) ([1]; 1 d after ischemia): 2.04 ± 0.13
- Neurobehavioral score (0 to 4 points) ([1]; 2 d after ischemia): 2.20 ± 0.25
- Neurobehavioral score (0 to 4 points) ([1]; 3 d after ischemia): 1.98 ± 0.45
- Neurobehavioral score (0 to 4 points) ([1]; 4 d after ischemia): 1.87 ± 0.27
- Neurobehavioral score (0 to 4 points) ([1]; 5 d after ischemia): 2.11 ± 0.16
- Neurobehavioral score (0 to 4 points) ([1]; 6 d after ischemia): 1.79 ± 0.28
- Neurobehavioral score (0 to 4 points) ([1]; 7 d after ischemia): 1.21 ± 0.22
- Relative intensity of p-AKT/t-AKT protein [2]: 209.651 ± 3.294

Compound: CC1CC(C)CN(c2ccc(-c3cc(=O)c4ccc(O)c(O)c4o3)cc2)C1 (stereo not drawn) [Example 5, 2-(4-(3,5-dimethylpiperidin-1-yl)phenyl)-7,8-dihydroxy-4H-chromen-4-one]
- Neurobehavioral score (0 to 4 points) ([1]; 6 h after ischemia): 2.03 ± 0.29
- Neurobehavioral score (0 to 4 points) ([1]; 1 d after ischemia): 1.86 ± 0.44
- Neurobehavioral score (0 to 4 points) ([1]; 2 d after ischemia): 1.75 ± 0.25
- Neurobehavioral score (0 to 4 points) ([1]; 3 d after ischemia): 1.94 ± 0.23
- Neurobehavioral score (0 to 4 points) ([1]; 4 d after ischemia): 1.85 ± 0.34
- Neurobehavioral score (0 to 4 points) ([1]; 5 d after ischemia): 1.93 ± 0.20
- Neurobehavioral score (0 to 4 points) ([1]; 6 d after ischemia): 1.72 ± 0.44
- Neurobehavioral score (0 to 4 points) ([1]; 7 d after ischemia): 1.19 ± 0.30
- Relative intensity of p-AKT/t-AKT protein [2]: 219.904 ± 6.954

Compound: CC1(C)CCN(c2ccc(-c3cc(=O)c4ccc(O)c(O)c4o3)cc2)CC1 [Example 4, 2-(4-(4,4-dimethylpiperidin-1-yl)phenyl)-7,8-dihydroxy-4H-chromen-4-one]
- Neurobehavioral score (0 to 4 points) ([1]; 6 h after ischemia): 2.23 ± 0.36
- Neurobehavioral score (0 to 4 points) ([1]; 1 d after ischemia): 1.99 ± 0.36
- Neurobehavioral score (0 to 4 points) ([1]; 2 d after ischemia): 1.85 ± 0.45
- Neurobehavioral score (0 to 4 points) ([1]; 3 d after ischemia): 2.23 ± 0.36
- Neurobehavioral score (0 to 4 points) ([1]; 4 d after ischemia): 1.54 ± 0.27
- Neurobehavioral score (0 to 4 points) ([1]; 5 d after ischemia): 1.78 ± 0.11
- Neurobehavioral score (0 to 4 points) ([1]; 6 d after ischemia): 1.68 ± 0.27
- Neurobehavioral score (0 to 4 points) ([1]; 7 d after ischemia): 1.12 ± 0.23
- Relative intensity of p-AKT/t-AKT protein [2]: 215.698 ± 5.487
